Results from US4060527A, “Pyrido[2,3-c]-acridine-1-hydroxy-2-carboxylic acid derivatives” (Fuji Chemical Industries, Ltd., priority 1975, dated 1977).
In brackets after ≈: the same amount, converted by molar mass. Read-outs that look alike come from different tables or passages of the source.

How the values were obtained:
[1] = Acute toxicity LD50 on mouse; settings: in vivo, sc
[2] = tested on: Staphylococcus aureus; test: Antibacterial activity (MIC) against Staphylococcus aureus as Gram-positive bacterium; assay type: cell-based; settings: Staphylococcus aureus; Table 3, class symbols; read-out: Antibacterial Activity (MIC) Staph. aureus
Description: (§1) Some of the compounds of this invention were tested as to their antibacterial activity (MIC, mcg/ml) against Staph. aureus as Gram-positive bacterium and E. coli as Gram-negative bacterium. In the table, the antibacterial activity of 0.09 to 1.25 mcg/ml. is indicated as A1, and the antibacterial activity of more than 1.25 mcg/ml. and not more than 2.5 mcg/ml. is indicated as A2.

[3] = in vivo; settings: mouse
[4] = tested on: Escherichia coli; test: Antibacterial activity (MIC) against Escherichia coli as Gram-negative bacterium; assay type: cell-based; settings: for MBC: Table 1, bacteriocidal, read-out: Escherichia coli bacteriocidal action; for MIC: Table 1, bacteriostatic, read-out: Escherichia coli bacteriostatic action (MIC)
[5] = tested on: Staphylococcus aureus; test: Antibacterial activity (MIC) against Staphylococcus aureus as Gram-positive bacterium; assay type: cell-based; settings: for MBC: Table 1, bacteriocidal, read-out: Staphylococcus aureus bacteriocidal action; for MIC: Table 1, bacteriostatic, read-out: Staphylococcus aureus bacteriostatic action (MIC)
[6] = tested on: Escherichia coli; test: Antibacterial activity (MIC) against Escherichia coli as Gram-negative bacterium; assay type: cell-based; settings: Escherichia coli; Table 3, class symbols; read-out: Antibacterial Activity (MIC) E. coli
Description: as §1

[7] = in vivo; cited from earlier work

Compound: Cc1c2ccccc2nc2c1ccc1ncc(C(=O)O)c(O)c12 [Compound F-636]
- LD50 [1]: > 3000 mg/kg
- MIC [2]: 0.09 to 1.25 µg/mL (≈ 0.296 to 4.11 µM)
- LD50 ([3]; iv): 235 mg/kg
- LD50 ([3]; po): > 5000 mg/kg
- MBC [4]: 2.5 µg/mL (≈ 8.22 µM)
- MIC [4]: 1.25 µg/mL (≈ 4.11 µM)
- MBC [5]: 1.25 µg/mL (≈ 4.11 µM)
- MIC [5]: 1.25 µg/mL (≈ 4.11 µM)
- MIC [6]: 0.09 to 1.25 µg/mL (≈ 0.296 to 4.11 µM)

Compound: acriflavin
- toxicity [7]: fairly high toxicity, and exhibit high toxicity in internal administration

Compound: O=C(O)c1cnc2ccc3cc4ccccc4nc3c2c1O [Compound F-631]
- LD50 [1]: > 3000 mg/kg
- MIC [2]: 0.09 to 1.25 µg/mL (≈ 0.31 to 4.31 µM)
- LD50 ([3]; iv): 230 mg/kg
- LD50 ([3]; po): > 5000 mg/kg
- MBC [4]: 1.25 µg/mL (≈ 4.31 µM)
- MIC [4]: 1.25 µg/mL (≈ 4.31 µM)
- MBC [5]: 1.25 µg/mL (≈ 4.31 µM)
- MIC [5]: 1.25 µg/mL (≈ 4.31 µM)
- MIC [6]: 0.09 to 1.25 µg/mL (≈ 0.31 to 4.31 µM)

Compound: Cc1ccc2nc3c(ccc4ncc(C(=O)O)c(O)c43)cc2c1 [Compound F-637]
- LD50 [1]: > 3000 mg/kg
- MIC [2]: 0.09 to 1.25 µg/mL (≈ 0.296 to 4.11 µM)
- LD50 ([3]; iv): 256 mg/kg
- LD50 ([3]; po): > 5000 mg/kg
- MBC [4]: 1.25 µg/mL (≈ 4.11 µM)
- MIC [4]: 0.62 µg/mL (≈ 2.04 µM)
- MBC [5]: 2.5 µg/mL (≈ 8.22 µM)
- MIC [5]: 1.25 µg/mL (≈ 4.11 µM)
- MIC [6]: 0.09 to 1.25 µg/mL (≈ 0.296 to 4.11 µM)
